The values that follow are results of earlier work, collected in US4127538A, “Novel pentacosapeptides, intermediates therefor and pharmaceutical compositions and methods employing said pentacosapeptides” (priority 1977, dated 1978).

For data set [1] the following is noted: injected directly into the brain of the rat.
Data set [2] concerns partially purified brain opiate receptor sites.

Take “H-Tyr-Gly-Gly-Phe-Met-OH [methionine enkephalin]”: the analgesic effect entry in data set [1] is “weak analgesic agent of short duration”. In data set [2], the “binding to partially purified brain opiate receptor sites” value is given as “binds stereo-specifically”.
